# These antisense oligonucleotides have a phosphorothioate backbone; sugars and methylation of C are not fully specified.
# Experiments:
# Conditions in all cases: ASO
# [1] = biological target: TRADD
# [2] = biological target: AKT3
# [3] = biological target: GNA11
# Also: test concentration or dose not given here.
Sequence,remaining target (mRNA or protein) (fraction of control) [1],remaining target (mRNA or protein) (fraction of control) [2],other results
GGATGGGAGAAGGTGAGG,0.55,–,–
AGTGCTGGGCGAGCGCGG,≥ 1,–,–
CGATTCACTACAGGCTGA,0.86,–,–
TCTATAACAGTAGTCCAC,–,≥ 1,–
GGAACAGAAAAGTCTGGG,0.93,–,–
GGGAAGGCAATCAACTCT,≥ 1,–,–
CTCTTCGTGCCCATTTTG,0.89,–,–
GCAGGTCCAGCAGATAGG,0.9,–,–
CTTTTGCGTCATCTGGTC,–,≥ 1,–
GCGTCATCTGGTCCTCCA,–,0.26,–
TTGGCTTTGGTCGTTCTG,–,≥ 1,–
AAAGTCTGGGCAGGTGGC,0.56,–,–
ATTCTCTCCTCTTCTTGC,–,≥ 1,–
GCACGAAGCGCCGCAGCA,≥ 1,–,–
TCATACATGACAACCCCT,–,0.13,–
CTCCACCAAGGCGTTTAT,–,0.12,–
AGTTGCAGCGGCACCGAG,≥ 1,–,–
GAGGCAGAATCCCCAATG,≥ 1,–,–
AGTGAGCGCCCCACCTTG,0.98,–,–
TCCTCTGCCAGGCTGGTG,≥ 1,–,–
GTAGTCCACTGGAGACAT,–,≥ 1,–
GTCTCAGATGTTACTTGA,–,0.71,–
TCTTCCTCTCCTATATTA,–,≥ 1,–
GAGACATCTGATTATAAA,–,≥ 1,–

Sequence,remaining target (mRNA or protein) (fraction of control) [1],remaining target (mRNA or protein) (fraction of control) [2],other results
TCAGGGTCCCGTGGATGG,≥ 1,–,–
TCCAGGTTCTCCAAAAGC,0.46,–,–
CTCACCTCCTGGCCGCCT,0.76,–,–
ACTGAAAAGTTGTTGAGG,–,≥ 1,–
AATAGCCGCAGAAGGAAC,0.83,–,–
GATTATAAATGTGTTTGG,–,≥ 1,–
TTGGACTACAATTCATTC,–,0.72,–
CCCACCCCACACTCTATC,0.47,–,–
GTCCTGGTTGTAGAAAGG,–,0.58,–
TTTGTGAAGTTGGACTAC,–,≥ 1,–
TCAGCCAGTTCTTCATCC,≥ 1,–,–
CGGTCGGGCTGCTGGGCT,≥ 1,–,–
TAGTATCTGTCTCAGATG,–,0.7,–
GCCTCTGCAGTCTGTCTG,–,≥ 1,–
GCCAGCAAAGCGTCCAGC,≥ 1,–,–
CCATCTGTCTTCAAAAGG,–,≥ 1,–
CCCAGCAAGTCCTCTGCC,0.75,–,–
GATCCTTTATCAAGAGCC,–,0.4,–
AGCGGCACCGAGTGCTGG,≥ 1,–,–
TCTCATGGTCCTGGTTGT,–,0.57,–
GCCCTGAAAGCAATGATT,–,0.34,–
CAAGATTGATTCCTGTTT,0.94,–,–
GAGTCCAGCGCCGGGTCC,0.48,–,–
TGTTCTCTCTATAACAGT,–,0.94,–

Sequence,remaining target (mRNA or protein) (fraction of control) [1],remaining target (mRNA or protein) (fraction of control) [2],other results
AAAGATCAAGGTGCTTCA,≥ 1,–,–
TGCTCGTACAGTCCCTCG,≥ 1,–,–
ATTATCAATTTGTGAAGT,–,≥ 1,–
GTAATAGTCTGAGCTGTA,–,0.88,–
CTACATGAAATGTTCTCT,–,≥ 1,–
ATCAAGAGCCCTGAAAGC,–,0.29,–
GTCCTTCAGGCTCAGCGG,0.75,–,–
ACTTTATTATCATTGCTT,0.66,–,–
TCATTAACTGGCATTTTG,–,≥ 1,–
TCTGGTCCTCCACCAAGG,–,0.26,–
TTTGCATCTGAAGAGAGT,–,0.77,–
GGAGGAAGCGGCCACAGG,0.68,–,–
AAAGGTAACCTCCCACAC,–,0.19,–
AAATGTGTTTGGCTTTGG,–,≥ 1,–
AACTGTGTCTCATAATTT,–,≥ 1,–
GCTGCTGGGCTAGGATGC,0.84,–,–
AGAGAAGAAACTGTGTCT,–,≥ 1,–
GCCAGTTTACTCCAGAGA,–,0.44,–
CTGAAGAGAGTGTTCGAG,–,≥ 1,–
CCACGCTGAGTGTGAGCT,0.68,–,–
AACCTCCCACACATCATT,–,0.22,–
CCACCTTGTCCAGCGAGG,0.59,–,–
CTCTTTATATCCTATGAA,–,≥ 1,–
AATGATTTTGCATCTGAA,–,0.94,–

Sequence,remaining target (mRNA or protein) (fraction of control) [1],remaining target (mRNA or protein) (fraction of control) [2],other results
TACTCCAGAGAAGAAACT,–,0.85,–
GCGGCGGCGGCGGCTTCA,≥ 1,–,–
GAGGACTCCACAAACAGG,0.93,–,–
CCCGCCGCTCTCTGCCAA,≥ 1,–,–
CCGACAGAGAGGGCACCG,≥ 1,–,–
CTGTTTTCATTAACTGGC,–,≥ 1,–
CAGGCCGCCATTGGGATC,≥ 1,–,–
TTCCATTAATATTAATTC,–,≥ 1,–
AGATTTCGCAGCGCATCC,≥ 1,–,–
ATGAAGTCCAGGACACCA,≥ 1,–,–
ACCCTAAGGCCATCCAGG,0.64,–,–
TGTCCATTCTTCCCTTTC,–,≥ 1,–
CTAGGCCCCACCAGTCTA,–,0.17,–
GACCCTGGAACAGAAAAG,0.9,–,–
GAGGAAATTTAATGTCTT,–,≥ 1,–
TGCGGGTCGCTGCGGTGG,0.69,–,–
GCCGCACTTCAGATTTCG,≥ 1,–,–
AAGGTAAATCCACATCTT,–,0.66,–
GGATCTTCAGCATCTGCA,≥ 1,–,–
AACCCAACCTTCTTTCAC,–,≥ 1,–
AAACTGTAAGGGCTGGCT,0.91,–,–
TGTCTCATAATTTCTTTT,–,≥ 1,–
GCTCGTACTCGTAGGCCA,≥ 1,–,–
TAGGCCAAGTGGAGTTTC,0.58,–,–

Sequence,remaining target (mRNA or protein) (fraction of control) [1],remaining target (mRNA or protein) (fraction of control) [2],other results
CCCTCGCGCTCGTACTCG,0.42,–,–
TGGGCTAGGATGCAACTC,0.67,–,–
CTTGCGCCATTTGAGACC,0.7,–,–
TTCCCTTTCCTCTGGAGT,–,0.65,–
GGAGTATCTACATGAAAT,–,≥ 1,–
GGTTCCCACGCCCGCCAG,≥ 1,–,–
ACAATTCATTCTCTCCTC,–,≥ 1,–
AAGTTTCTCATGGTCCTG,–,0.43,–
CTGCTCGGCCATAGTCAT,–,0.19,–
GCTGCCCACCCACTCTTC,≥ 1,–,–
ATATACATCTTGCCAGTT,–,0.87,–
GGGCAGGTGGCGGCGGCG,0.7,–,–
GGTTTAAGAGGAGGTACA,–,≥ 1,–
TCTATCAAAGTACCTGAG,≥ 1,–,–
GTGCGCGTAGGCATCCGA,≥ 1,–,–
GGTATGCGCTGCCCACCC,≥ 1,–,–
AAGGTGAGGCTGATCTCC,0.72,–,–
GGTGGCGGCGGCGGCGGC,0.99,–,–
CTGTTTTACTTCACTGCA,≥ 1,–,–
CGTAGGCCAGCGAGTCCA,≥ 1,–,–
CGCAGCGCATCCTCCAGC,0.99,–,–
TGCGGTGGATCTTCAGCA,≥ 1,–,–
CATTTGAGACCCACAGAG,0.83,–,–
GCCCGCAGAATCGCAGCT,0.75,–,–

Sequence,remaining target (mRNA or protein) (fraction of control) [1],remaining target (mRNA or protein) (fraction of control) [2],other results
GATGCAACTCAAACAGCG,≥ 1,–,–
CCGAAGCGACCTCCCCGT,≥ 1,–,–
CAGCGCCCGGCAGCCTCG,≥ 1,–,–
CCGTGTTATACTTTATTA,≥ 1,–,–
GCATCCGACAGGACCACC,0.93,–,–
TCACTACAGGCTGACCCT,0.74,–,–
TCTGTTGGTCCTTCAGGC,≥ 1,–,–
AGCTCCAGTTGCAGCGGC,0.82,–,–
CCCCGAGCCGCACTTCAG,0.77,–,–
CTCCGCTCCGACCGCTGG,–,–,remaining target (mRNA or protein) (fraction of control) [3]: 0.44
TGGCTGCACCCCTGGTCT,≥ 1,–,–
TCGATGATGCCGGTGGTG,–,–,remaining target (mRNA or protein) (fraction of control) [3]: ≥ 1
CAGGAGCGCATTGGCCTT,–,–,remaining target (mRNA or protein) (fraction of control) [3]: ≥ 1
AGCTGCCATCTCACCTCC,≥ 1,–,–
GCCTTGTTCTGCTCGTAC,–,–,remaining target (mRNA or protein) (fraction of control) [3]: 0.75
ATCCGCTTGGACTCCTTC,–,–,remaining target (mRNA or protein) (fraction of control) [3]: 0.83
TCCACAAACAGGTATGCG,≥ 1,–,–
GCGTAGGCATCCGACAGG,0.97,–,–
GTCCAGCGAGGACTCCAC,0.36,–,–
CACCCACTCTTCGTGCCC,≥ 1,–,–
ATGATGGATGTCACGTTC,–,–,remaining target (mRNA or protein) (fraction of control) [3]: ≥ 1

# Reference: the OligoGym collection
